Experimental data published in patent US5300279A, “Organic amine phosphonic acid complexes for the treatment of calcific tumors” (The Dow Chemical Company, priority 1990, dated 1994).
Read-outs that look alike come from different tables or passages of the source.

Tests used:
tumor [1] = tested on: tumor
Description: (§1) An English Setter with a tumor in his pelvis was injected with approximately 19 mCi of a composition containing Sm-153-EDTMP. After 2 hours, the dog was imaged using a scintillation camera.
(§2) An Irish setter with undifferentiated sarcoma metastatic to bone was treated with 16 mCi (0.57 mCi/kg) of a composition containing Sm-153-EDTMP. […] After approximately 3 months, when signs of lameness began to reappear, the dog was given a second treatment of 15 mCi (0.49 mCi/kg), of a composition containing Sm-153-EDTMP.
A female Irish Wolfhound with a possible osteosarcoma on the left distal radius was injected with a composition containing ^166 Ho-EDTMP (0.97 mCi/kg).

lesion / normal bone = details: compared with Tc-99m-MDP
Description: Thus, two holes were drilled into the surface of the tibia of a rabbit in order to damage the bone. Seven to ten days later, the animal was injected with the radionuclide composition. After three hours, the rabbit was anesthetized and imaged using an Anger camera and pinhole collimator.

tumor [2] = tested on: tumor; remark: listed apart in the source
Description: as §1
An Irish Setter with a tumor in the femur was injected with a composition containing Sm-153-EDTMP. The leg was amputated and samples of the tumor and normal bone were analyzed for Sm-153.
as §2

[3] = humans
[4] = Description: Sterile pyrogen-free vials were prepared to contain 210 mg of EDTMP and 140 mg NAOH by freeze-drying a solution containing appropriate amounts of EDTMP and NAOH. The vials were sealed under vacuum. To prepare one of the compositons of the invention, 6 ml of a solution containing Sm-153 (approximately 3×10^-4 M in Sm) in 0.1M HCl was injected into the sealed vial through a septum.
Urine was collected and counted to determine the percentage of the radioactivity excreted as a function of time after injection.

[5] = rabbits, three hour, averaged for 5 rabbits
Description: Biolocalization studies were also performed in rabbits. The rabbits were injected with 100-250 microliters of the composition into the marginal ear vein. In studies where blood clearance was measured, blood samples were taken through a heparinized cannula placed in the marginal vein of the ear not used for injection. Three hours after injection, a blood sample was taken from each rabbit by cardiac puncture and each animal was sacrificed by injection of a commercial euthanasia solution. After sacrifice, images were obtained by placing the carcass directly on the face of a large field-of-view scintillation camera.
Whenever in the following examples and tables data is presented on the administered dose of radioactivity, the numbers given represent the percentage of the administered dose which localized in the indicated tissue. The ratios of radioactivity observed in bone relative to blood and muscle were calculated based on the percent dose per gram in the bone and in the blood and muscle. Whenever the ratios of radioactivity found in bone to that found in nonosseous tissue is given, the calculation was made as indicated above on a percent dose per gram basis.
Compositions containing Sm-153-EDTMP (compositions prepared as in Example 2) were also tested in rabbits.

cancerous lesions = test: scintigraphic imaging in humans with metastatic bone cancer; assay type: in vivo
Description: Scintigraphic images were obtained two hours post injection and were used for comparison with images previously obtained using Tc-99m-HDP (hydroxymethylenediphosphonate), a commercially available diagnostic bone imaging agent.
The uptake observed for each radionuclide in selected lesions compared to its uptake in normal bone was determined using digitized images.

[6] = Irish setter, nine months after second treatment

O=P([O-])(O)CN(CCN(CP(=O)([O-])O)CP(=O)(O)O)CP(=O)([O-])O.[153Sm+3] [Example 2]
pain / mobility (tumor [1]; English Setter, approximately 19 mCi, seven days after treatment): appeared to be in less pain as evidenced by an increase in its mobility
pain / mobility / lameness (tumor [1]; Irish setter, 16 mCi (0.57 mCi/kg), seven days after treatment): appeared to be in less pain as evidenced by an increase in mobility and a decrease in lameness
time until signs of lameness began to reappear (tumor [1]; Irish setter, after first treatment 16 mCi (0.57 mCi/kg)): approximately 3 months
lameness and general health (tumor [1]; Irish setter, eight months after second treatment): no recurrence of lameness, had gained weight and appeared healthy
regression of bone lesions (X-rays) (tumor [1]; Irish setter, five months after second treatment): significant regression of bone lesions
death (tumor [1]; [6]): died of kidney failure
total necropsy (tumor [1]; [6]): no evidence of cancer
mobility / lameness after second treatment (tumor [1]; Irish setter, second treatment 15 mCi (0.49 mCi/kg), seven days): general increase in mobility and decrease in lameness
lesion to normal bone ratio (lesion / normal bone): approximately equal to that of Tc-99m-MDP
uptake of radioactivity in the area of the tumor (scintillation scan) (tumor [2]; English Setter, tumor in pelvis, approximately 19 mCi, 2 hours): high uptake of radioactivity in the area of the tumor
scans compared with Tc-99m-MDP (tumor [2]; English Setter, 2 hours): looked very similar to an earlier scan performed using Tc-99m-MDP
lesion to normal bone ratio (tumor [2]; English Setter, compared with Tc-99m): very similar to that for To-99m
amount of Sm-153 in the tumor relative to non-lesionous bone, per gram basis (tumor [2]; Irish Setter, tumor in femur, same leg): 15-20 times
scans compared with Tc-99m-MDP (tumor [2]; Irish setter, sarcoma metastatic to bone): very similar to scans obtained earlier using Tc-99m-MDP
uptake of Sm-153 in the area of the lesion (scintillation scans) (tumor [2]; Irish setter, sarcoma metastatic to bone, 16 mCi (0.57 mCi/kg)): high uptake of Sm-153 in the area of the lesion
blood profiles (white blood cell, red blood cell, platelet count) and serum chemistry profiles ([3]; post-injection vs preinjection): No significant changes
vital signs ([3]; several post injection times vs preinjection): not significantly different than preinjection values
Percent Excretion in Urine, Average ([4]; 1 Hr., average of 5 patients): 26.13%
Percent Excretion in Urine, Average ([4]; 2 Hr., average of 5 patients): 7.15%
Percent Excretion in Urine, Average ([4]; 4-8 Hr., average of 5 patients): 9.02%
Percent Excretion in Urine, Average ([4]; 4 Hr., average of 5 patients): 10.95%
Percent Excretion in Urine, Average ([4]; 8-12 Hr., average of 5 patients): 1.76%
Percent Excretion in Urine, Average ([4]; 12-24 Hr., average of 5 patients): 1.07%
Percent Excretion in Urine, 24 Hr Total, Average ([4]; 24 Hr Total, average of 5 patients): 56.09%
clearance of radioactivity into the urine ([4]; humans, words): cleared rapidly
% Dose in Blood [5]: 0.12 % Dose
% Dose in Bone Marrow [5]: 0.15 % Dose
% Dose in Liver [5]: 0.95 % Dose
% Dose in Skeleton [5]: 66 % Dose
% Dose in Urine ([5]; 180 min): 34 % Dose
Bone/Blood ([5]; ratio of percent dose per gram): 900
Bone/Muscle ([5]; ratio of percent dose per gram): 1200
Sm-153 concentration in cancerous lesions (cancerous lesions; compared with dogs): high, selective and similar to that observed in dogs
localization of radioactivity in lesions vs normal bone compared with Tc-99m-HDP (cancerous lesions; digitized images): localization of radioactivity in the lesions to a similar extent
visibility of cancerous lesions compared with Tc-99m-HDP (cancerous lesions; qualitative comparison of images): all cancerous lesions observable with Tc-99m-HDP are seen equally well with Sm-153-EDTMP
retention of radioactivity in the kidneys (cancerous lesions; two hour post injection images): no observable retention of radioactivity in the kidneys
localization of Sm-153 in scintigraphic images (cancerous lesions; two hours post injection): localized in skeletal tissue with no significant uptake and retention in non-osseous tissues
